Test results published in US20180340947A1, “INVOLVEMENT OF THE BUFO[…] THE DIAGNOSIS AND TREATMENT OF POST-TRAUMATIC STRESS DISORDER (PTSD)” (priority 2017, published 2018).

Assays:
[1] = tested on: blood/brain barrier; details: including disruption of the blood/brain barrier; cited from earlier work
[2] = in vitro; cited from earlier work
[3] = tested on: GFAP-labeled astrocytes in cortex after impact acceleration injury; assay: GFAP immuno-fluorescence of brain after impact acceleration injury (IAI); type: in vivo; details: RBG at 1 hour after IAI
Experimental: FIGS. 2A-2C. Micrographs of GFAP (glial fibrillary acidic protein) immuno-fluorescence. GFAP antibody labels the intermediate filaments of most astrocytes in the brain. In the sham animals (FIG. 2A), a normal distribution of GFAP-labeled astrocytes is seen. At 24 hours after an impact acceleration injury (IAI; FIG. 2B), a noticeable scar is observed (arrows) in layers 2 and 3 of the cortex. There is also a patchy loss of GFAP-labeled astrocytes throughout cortex and the vasculature (arrowheads) appears damaged. The loss of GFAP immunoreactivity and the appearance of astrocyte hypertrophy are indicative of a neuroinflammatory response to injury. […] The RBG treatment also reduces the decrease in GFAP immunoreactivity and a greater proportion of GFAP-labeled astrocytes have a normal, rather than hypertrophied appearance.

[4] = tested on: traumatic brain injured animals; assay: Urinary MBG excretion in sham and traumatic brain injured animals; type: in vivo
Excerpt: There are estimated to be between 300,000 to 350,000 veterans of the Middle East conflicts who currently suffer from PTSD related to wartime service. However, there are no proven methods to diagnose and stage the results of both physical and psychological trauma leading to PTSD, nor are there successful preventative or treatment methods. The interest in these military-associated problems has been accelerated by their potential application also to concussion in civilian life, especially to amateur, collegiate, and professional sports. Thus far, no solution has been enunciated nor has been proven (Meier and Ivory, Jul. 3, 2015, The New York Times). […] 114. […] It has been determined that a circulating cardiac glycoside (or “cardiotonic steroid”) called marinobufagenin (MBG) (FIG. 1), acts as both an indicator and initiator of the inflammatory process involved in TBI (FIG. 1) (Shapiro et al., The American Society for Clinical Pharmacology and Therapeutics, Dallas, Tex., Mar. 2-5, 2011. ASCPT Annual Meeting Program Booklet, p. 78; Puschett et al., Medical Research Archives 2015, ISSN 2375-1924; Oliver et al., J Experimental Neuroscience 2015, 9:67-72). […]

[5] = tested on: preeclampsia in animal models; details: cited from earlier work
[6] = tested on: rodent brain contusion model; assay: Rodent brain contusion model; type: in vivo; details: given 1 hour after the insult
Excerpt: MBG is elevated in other syndromes such as preeclampsia and traumatic brain injury. It has been shown that the administration of the antagonist of MBG, resibufagenin (RBG), is therapeutically effective. […] RBG antagonizes MBG activity and may be an effective treatment for hypertension, ARDS, traumatic brain injury, and preeclampsia. Certain embodiments are directed to treating a patient having elevated levels of MBG by administering an MBG antagonist or anti-MBG agent. In certain aspects the anti-MBG agent is resibufagenin (RBG).

Row | Compound | Vascular leak [1] | Vasoconstrictor action [2] | Glial scar ([3]; IAI+RBG animals) | Alterations after IAI (glial scar, loss of GFAP immunoreactivity, astrocyte hypertrophy) ([3]; micrographs at 24 hours after IAI) | Urinary MBG excretion ([4]; TBI + RBG group, N = 10, sham 592.8 ± 79.3, TBI 1340.9 ± 308.5, P TBI vs. TBI + RBG = 0.02) | Antagonism of the effects of MBG ([4]; animal model of TBI (FIG. 2, Table 1)) | Preeclampsia [5] | Tissue injury [6]
1 | C[C@]12CC[C@H](O)C[C@@]1(O)CC[C@@H]1[C@@H]2CC[C@]2(C)[C@@H](c3ccc(=O)oc3)C[C@H]3O[C@]132 [MBG, marinobufagenin] | cause vascular leak | acts in vitro as a vasoconstrictor | – | – | – | – | – | –
2 | C[C@]12CC[C@H](O)C[C@H]1CC[C@@H]1[C@@H]2CC[C@]2(C)[C@@H](c3ccc(=O)oc3)C[C@H]3O[C@]132 [RBG, resibufogenin] | – | – | A glial scar was not observed | most of these alterations are ameliorated | 475.3 ± 56.1 | antagonizes the effects of MBG | prevents preeclampsia | amelioration of tissue injury
